For one test, the target named is T1, ST6Gal-I (Rattus norvegicus, UniProt P13721).
T1 construct: purchased Calbiochem
T1 sequence (P13721 1-403): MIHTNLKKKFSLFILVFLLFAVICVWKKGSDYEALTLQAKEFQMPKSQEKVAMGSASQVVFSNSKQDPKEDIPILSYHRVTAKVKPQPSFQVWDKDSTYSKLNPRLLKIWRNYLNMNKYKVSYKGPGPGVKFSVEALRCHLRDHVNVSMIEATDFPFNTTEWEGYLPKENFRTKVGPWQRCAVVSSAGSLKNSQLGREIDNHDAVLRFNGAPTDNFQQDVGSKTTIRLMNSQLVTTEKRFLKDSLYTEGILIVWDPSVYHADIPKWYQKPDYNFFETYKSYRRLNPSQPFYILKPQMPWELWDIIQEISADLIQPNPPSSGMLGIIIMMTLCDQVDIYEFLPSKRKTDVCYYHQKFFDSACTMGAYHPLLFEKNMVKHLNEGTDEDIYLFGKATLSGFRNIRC
The test is described as follows: CMP-NeuAc / UMP-NeuAc formed by reverse sialylation as sialyl donor, ST6Gal-I activity. The settings on record: acceptor 2.5 mM Galβ1,4GlcNAcβ-O-Bn; donor [3] 0.0625 mM, 8 mM 5′-CMP or 5′-UMP, ST3Gal-II plus ST6GalI, 4 h. Type of test: biochemical.

For a further test, the target named is T2, ST3Gal-III (Rattus norvegicus, UniProt Q02734).
T2 construct: purchased Calbiochem
T2 sequence (Q02734 1-374): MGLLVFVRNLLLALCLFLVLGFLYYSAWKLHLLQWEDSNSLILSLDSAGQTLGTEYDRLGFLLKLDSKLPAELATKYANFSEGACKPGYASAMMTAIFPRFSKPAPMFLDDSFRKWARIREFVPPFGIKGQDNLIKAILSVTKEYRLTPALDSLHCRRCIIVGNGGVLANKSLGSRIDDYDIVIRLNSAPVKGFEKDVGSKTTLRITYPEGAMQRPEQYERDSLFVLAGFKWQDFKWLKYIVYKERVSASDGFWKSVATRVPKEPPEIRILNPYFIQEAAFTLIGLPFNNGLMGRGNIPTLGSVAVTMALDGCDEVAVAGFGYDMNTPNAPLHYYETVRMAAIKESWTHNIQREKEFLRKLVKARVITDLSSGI
The test is described as follows: CMP-NeuAc / UMP-NeuAc formed by reverse sialylation as sialyl donor, ST3Gal-III activity. In kind it is biochemical. The settings on record: acceptor 2.5 mM 4-O-MeGalβ1,4GlcNAcβ-O-Bn; donor [3] 0.0625 mM, 8 mM 5′-CMP or 5′-UMP, ST3Gal-II plus ST3Gal-III, 4 h.

In test [1] the target is T3, ST3Gal-II (Rattus norvegicus, UniProt Q11205).
T3 construct: purchased Calbiochem
T3 sequence (Q11205 1-350): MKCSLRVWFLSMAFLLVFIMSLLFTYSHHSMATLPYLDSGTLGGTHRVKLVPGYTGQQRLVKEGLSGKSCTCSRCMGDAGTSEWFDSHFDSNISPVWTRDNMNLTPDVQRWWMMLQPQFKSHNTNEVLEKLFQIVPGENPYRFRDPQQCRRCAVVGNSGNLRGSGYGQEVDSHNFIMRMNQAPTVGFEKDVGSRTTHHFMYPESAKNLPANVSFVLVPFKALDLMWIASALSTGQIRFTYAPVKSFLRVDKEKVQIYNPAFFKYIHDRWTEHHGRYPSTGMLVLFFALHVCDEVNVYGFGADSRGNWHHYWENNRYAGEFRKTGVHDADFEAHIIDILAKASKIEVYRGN
In words: CMP-NeuAc / UMP-NeuAc formed by reverse sialylation as sialyl donor, ST3Gal-II activity. Type of test: biochemical. The settings on record: acceptor 2.5 mM D-Fucβ1,3GalNAcα-O-Bn; donor [3] 0.0625 mM, 8 mM 5′-CMP or 5′-UMP, 4 h, blank subtracted.

The target of test [2] is T3, ST3Gal-II. In words: Serial transfer of sialic acid from donor via 5′-CMP to acceptors (scheme-II). Type of test: biochemical. Conditions: 0.15 mM donor; 2 mM 5′-CMP with core-2 donors. How it is done:
FIG. 3. Serial transfer of sialic acid using scheme-II was followed at increasing concentrations of acceptor D-Fucβ1,3GalNAcα-O-Bn. The donor used was either: i) 0.15 mM [9-^3H]CMP-NeuAc; or, ii) 0.15 mM [9-^3H]NeuAcα2,3Galβ1,3(4-FGlcNAcβ1,6)GalNAcα-O-Bn [9-^3H [2]] in the presence of 2.0 mM 5′-CMP, or iii) [9-^3H]NeuAcα2,3Galβ1,3(6-O-SulfoGlcNAcβ1,6)GalNAcα-O—Al [[9-^3H] [4]] in the presence of 2.0 mM 5′-CMP. In runs where [9-^3H [2]] was donor since both and [2] bind C18 cartridges, control runs were performed in the absence of D-Fucβ1,3GalNAcα-O-Bn to estimate the amount of [9-^3H]CMP-NeuAc formed under the experimental conditions. 80-85% of the radioactivity was transferred to CMP-NeuAc in these runs. The amount of CMP-NeuAc remaining in runs with was then subtracted from CMP-NeuAc radioactivity in the control run to determine the amount of sialylated. To complement this run, studies were also performed with [[9-^3H] […] In these runs, the amount of sialylated was determined by measuring radioactivity retained in the C18-cartridge. a. Equilibrium constant was 5.55 when CMP-[9-^3H]NeuAc was donor. b. ˜10-fold lower acceptor concentration was required for similar extents of reaction when CMP-[9-^3H]NeuAc was donor, compared to core-2 based donors and [4].
We tested the possibility that CMP-NeuAc formed above may be available for transfer to other acceptors using ST3Gal-II (scheme-II, FIG. 3). For this, three radiolabeled donors were prepared using methods described above: two were based on the mucin Core-2 structure ([[9-^3H] [1]] and [9-^3H]NeuAcα2,3Galβ1,3(6-O-SulfoGlcNAcβ1,6)GalNAcα-O—Al [[9-^3H] [4]]) while the third was based on the Globo glycolipid ([9-^3H] [3]). The transfer of [9-^3H]NeuAc from these sialylated donors to various T-hapten (Galβ1,3GalNAcα) and mucin core2-based glycoside acceptors in the presence of 5′-CMP and ST3Gal-II was assessed (Table III). All three […] of ST3Gal-II ([1], [3] and [4]) allowed formation of CMP-[9-^3H]NeuAc, and a diverse array of products.
The transfer of [9-^3H]NeuAc from [[9-^3H][1]] to D-Fucβ1,3GalNAcα-O-Bn in the presence of 5′-CMP and ST3Gal-II increased linearly in the first two hours and it reached saturation at 4 hours (FIG. 12), and thus the data in Table III (4 hours time point) represent equilibrium conditions. […] Further, diverse sialylated products can be formed using the same synthetic sialylated donor.
In order to compare the efficiency of individual reactions of scheme II, independent runs were performed where either 0.15 mM [9-^3H]CMP-NeuAc, 0.15 mM [9-^3H] [2] or 0.15 mM [9-^3H] [4] was the donor, and [5] was the acceptor (FIG. 3). 2 mM 5′-CMP was added in runs with core-2 donors and [4], and thus reverse sialylation of these molecules was feasible. Keq for transfer of sialic acid from CMP-NeuAc to [5] was 5.55 (FIG. 3a). […] (˜6 mM) or [9-^3H[4]] (˜6 mM). Thus, while the two-step mechanism results in lower conversion than CMP-NeuAc alone, the transfer of NeuAc still takes place at an appreciable rate.

The subject of the next test is HL60. In words: Reversible sialyltransferase activity in cell extract. The settings on record: HL60 (leukemia) cell extract, 1.0 mM 5′-CMP, 16 h, pH 6.0. Type of test: biochemical, human. From the text:
(§1) Thus, [9-^3H[4]] was used as donor and D-Fucβ1,3GalNAcα-O-Bn as acceptor in the presence of 5′-CMP and solubilized cell extracts. Of the cells tested, human prostate cancer cell lines LNCaP and PC-3 contained significant reversible sialyltransferase activity.

The next test relates to PC3. The description is as above. Type of test: biochemical, human. Conditions: PC3 (prostate) cell extract, 1.0 mM 5′-CMP, 16 h, pH 6.0.
Source text: as §1

The subject of a further test is MDA-MB231. The test is described as above. Type of test: biochemical, human. Conditions: MDA-MB231 (breast) cell extract, 1.0 mM 5′-CMP, 16 h, pH 6.0.
Source text: as §1

Another test concerns T47D. The description is as above. In kind it is biochemical, human. The settings on record: T47D (breast) cell extract, 1.0 mM 5′-CMP, 16 h, pH 6.0.
Source text: as §1

The next test concerns MDA-MB-435. Described as above. Type of test: biochemical, human. Conditions: MDA-MB-435 (breast) cell extract, 1.0 mM 5′-CMP, 16 h, pH 6.0.
Source text: as §1

The subject of another test is MCF-7. Described as above. The settings on record: MCF-7 (breast) cell extract, 1.0 mM 5′-CMP, 16 h, pH 6.0. Type of test: biochemical, human.
Source text: as §1

In another test the test system is ZR75-1. The test is described as above. In kind it is biochemical, human. The settings on record: ZR75-1 (breast) cell extract, 1.0 mM 5′-CMP, 16 h, pH 6.0.
Source text: as §1

The test system of a further test is LS180. The test is described as above. In kind it is biochemical, human. The settings on record: LS180 (colon) cell extract, 1.0 mM 5′-CMP, 16 h, pH 6.0.
Source text: as §1

A further test has as its system LNCaP. The description is as above. In kind it is biochemical, human. The settings on record: LNCaP (prostate) cell extract, 1.0 mM 5′-CMP, 16 h, pH 6.0.
Source text: as §1

For the molecule `CC(=O)N[C@H]1[C@H]([C@H](O)[C@H](O)CO)O[C@](OP(=O)(O)OC[C@H]2O[C@@H](n3ccc(N)nc3=O)[C@H](O)[C@@H]2O)(C(=O)O)C[C@@H]1O` [CMP-NeuAc, reference compound], the “Incorporation of [9-3H]NeuAc into the acceptor, ST6Gal-I activity” value on ST6Gal-I was found to be 15066 CPM. Besides, the “Incorporation of [9-3H]NeuAc into the acceptor, ST3Gal-III activity” value at ST3Gal-III stood at 59531 CPM. Besides, the “Incorporation of [9-3H]NeuAc into the acceptor, ST3Gal-II activity” value at ST3Gal-II [1] amounted to 134122 CPM. Besides, on ST3Gal-II [2], the “amount of acceptor [5] required for comparable transfer” value came to 0.6 mM.
Consider “[9-^3H]NeuAcα2,3Galβ1,3(6-O-SulfoGlcNAcβ1,6)GalNAcα-O—Al [[4]]”, for which the “Transfer of [9-3H]NeuAc from [9-3H[4]] to [5]” value is 0.76 CPM × 10^−3/mg protein in the test on HL60; 4.72 CPM × 10^−3/mg protein in the test on PC3; 0.09 CPM × 10^−3/mg protein with MDA-MB231; 0.52 CPM × 10^−3/mg protein in the test with T47D; 0.69 CPM × 10^−3/mg protein in the test with MDA-MB-435; 0.57 CPM × 10^−3/mg protein with MCF-7. The figures for the “Transfer of [9-3H]NeuAc from [9-3H[4]] to [5]” value in the test on ZR75-1, with LS180 and in the test with LNCaP were 1.32 CPM × 10^−3/mg protein, 0.01 CPM × 10^−3/mg protein and 19.89 CPM × 10^−3/mg protein, respectively. Further, at ST3Gal-II [2], the “amount of acceptor [5] required for comparable transfer” value is listed as roughly 6 mM.
